Here are results for two substances from paper PMC5789083, “Mechanisms driving the antibacterial and antibiofilm properties of Hp1404 and its analogue peptides against multidrug-resistant Pseudomonas aeruginosa” (Scientific Reports, 2018).

Where no end group is shown, it is not given here.

The subject of one data set is mouse red blood cells. Nature of the data set: Hemolytic activity. Type of data set: cell-based. Particulars: 8% mouse RBCs in PBS, 37 °C, 1 h, A414, triplicate. The procedure:
The hemolytic activities of the peptides were determined as previously described. Fresh mouse red blood cells (RBCs) were washed and diluted to 8% with PBS. RBC suspension was added to 96-well plates (100 µL/well), mixed with an equal volume of serially diluted peptides, and incubated at 37 °C for 1 h with gentle shaking. The plate was centrifuged and the supernatant was transferred to a 96-well plate. The absorbance at 414 nm was measured with a Versa-Max ELISA reader (Molecular Devices). PBS and 0.1% Triton X-100 were used as negative and positive controls, respectively. The experiment was performed in triplicate. The hemolysis rate was calculated using the following formula[55]: % Hemolysis = [(Abs 414 nm in the peptide solution-Abs 414 nm in PBS)/(Abs 414 nm in 0.1% Triton X-100-Abs 414 nm in PBS)] × 100

In a further data set the test system is trypsin. In words: Trypsin stability assay. Type of data set: in vitro ADME. Particulars: trypsin (25 nM) in sodium phosphate buffer, 20 µg peptide in 100 µL 10 mM sodium phosphate buffer pH 7.4 with 25 nM trypsin, 37 °C, RP-HPLC peak area of native peptide (C18), repeated three times, read-out: remaining peptide after trypsin treatment. The method, then: Each sample with trypsin was analysed by RT-HPLC on a Jupiter C18 column (4.6 × 250 mm, 300 Å, 5 µm; Phenomenex). Stability was expressed as the percentage of remaining peptide, which in turn was determined by comparing the HPLC peak areas, corresponding to the peak detected for the native peptide, before and after trypsin treatment. […]
(§1) released calcein was measured at an excitation wavelength of 480 nm and an emission […]
Trypsin stability assay. Peptides were treated with trypsin, and results were ev aluated usin g RP-HP LC, as described previously3. Briefly, 20 µ g of peptide was mixed with 100 µ L of 10 mM sodium phosphate buffer (pH 7.4) containing 25 nM trypsin (Sigma-Aldrich), and incubated at 37 °C for 1 h or 2 h. A fter incubation, 20 µL of each sampl e was anal ysed b y RT-HP LC on a J upiter C18 column (4.6 × 250 m m, 300 Å, 5 µm; Phenomenex).
PI uptake assay. Bacteri al membrane damage was assessed through monitoring the changes in fluorescence generated by the propidium iodide (P I) dye, as described previousl y4. Briefl y, P. aeruginosa ATCC 27853 was grown in NB to logarithmic phase of growth, and then diluted to OD600 = 0.25 in 10 mM sodium phosphate (pH 7.2) buffer with 10 % medium. […] PI fluorescence was monitored at an excitation wavelength of 580 nm and emission wavelength of 620 nm, using a micropl ate reader (Molecular Devices Co., Sunnyvale, CA, USA), during 30 min.

A further data set relates to mammalian cells. Particulars: at concentrations below 50 µM; cited from earlier work. The procedure: In a previous study, Hp1404 was purified from the venomous gland of the scorpion Heterometrus petersii. […] Moreover, it is not toxic to mammalian cells at concentrations below 50 µM[20].
For a further data set, the system named is P. aeruginosa ATCC 27853. Nature of the data set: Time-killing assay. Type of data set: cell-based, Pseudomonas aeruginosa. The following applies: at 2 hours; 2× MIC, P. aeruginosa ATCC 27853, 2 × 10^5 CFU/mL, colony counts in triplicate. From the text:
Peptide synthesis and purification. The peptides were s ynthesized using the solid- phase-9-fluorenylmethoxycarbonyl (Fmoc) method, as reported previously1, on a Rink amide 4-methylbenzhydrylamine resin, using a Liberty microwave peptide synthesizer (CEM, Matthews, NY, USA). The following chemicals were us ed as linkage reagents: 0.45 M 2- (1H - benzotriazole-1- yil)-1,1,3,3- tetramethyluronium hexafluorophosphate (HBTU) diluted in dimethylformamide (DMF), 0.1 M N -hydroxybenzotriazole (HOBt) diluted in piperidine/DMF, and 2 M N ,N -diisopropyleth ylamine (DIEA) diluted in N -methylp yrrolidone (NMP). After washing with dichloromethane (DCM), cleavage was performed by incubating for 2 h at 25 °C in a trifluoroacetic acid (TFA) solution containing water, phenol, and triisopropylsilane. The crude peptide was precipitated by dilution with ice-cold diethyl ether, then spread on the tube wall, and dried. After resuspension in 25 °C water, the peptide was purified by reversed phase high- performance liquid chromatograph y (RP-HP LC) on a Jupiter C18 column (4.6 × 250 mm, 300 Å, 5 µm; Phenomenex, Torrance, CA, USA). […]
(§2) Ti me -killing assay. […] After an 18- h incubation, the colonies were counted and aver age counts wer e determined.
(§3) Calcein leakage assay. […] The fluorescence generated from the […]

The nature of data set [1]: Calcein leakage assay, PC:CH:SM LUVs. The following applies: PC:CH:SM (1:1:1, w/w) LUVs mimicking mammalian cell membranes (Fig. S4).
Text: Peptide synthesis and purification. The peptides were s ynthesized using the solid- phase-9-fluorenylmethoxycarbonyl (Fmoc) method, as reported previously1, on a Rink amide 4-methylbenzhydrylamine resin, using a Liberty microwave peptide synthesizer (CEM, Matthews, NY, USA). The following chemicals were us ed as linkage reagents: 0.45 M 2- (1H - benzotriazole-1- yil)-1,1,3,3- tetramethyluronium hexafluorophosphate (HBTU) diluted in dimethylformamide (DMF), 0.1 M N -hydroxybenzotriazole (HOBt) diluted in piperidine/DMF, and 2 M N ,N -diisopropyleth ylamine (DIEA) diluted in N -methylp yrrolidone (NMP). […]
as §2, §3, §1
PI uptake assay. Bacteri al membrane damage was assessed through monitoring the changes in fluorescence generated by the propidium iodide (P I) dye, as described previousl y4. […] PI fluorescence was monitored at an excitation wavelength of 580 nm and emission wavelength of 620 nm, using a micropl ate reader (Molecular Devices Co., Sunnyvale, CA, USA), during 30 min.

What is called share remaining is the share of the starting amount still present when the sample was taken. As to GILGKLWEGVKSIF-NH2 [Hp1404], the hemolysis rate with mouse red blood cells (12.5 µM) is listed as 2%; with mouse red blood cells (25 µM), 11%; in the data set with mouse red blood cells (50 µM), 55%; with mouse red blood cells (100 µM), 92%; in the data set on mouse red blood cells (200 µM) it was 100%. The share remaining at 2 h, 0.2 mg/mL in the data set on trypsin was found to be 50%. For the same substance, in the data set on mammalian cells, the “toxicity to mammalian cells” value was “not toxic”.
Substance ILKKLLKKVKKI-NH2 [Hp1404-T1e] gave a bacteria killed with P. aeruginosa ATCC 27853 of 85%. The “toxicity by calcein leakage assay” value in data set [1] is “not toxic”.
